Experimental findings from ChEMBL document CHEMBL2401658, “Selectivity of phenothiazine cholinesterase inhibitors for neurotransmitter systems” (Bioorg Med Chem Lett, 2013) are described below.

Test [1] concerns the target Sodium-dependent dopamine transporter (Homo sapiens, UniProt Q01959). Kind of test: Antagonist activity at DAT (unknown origin) by PDSP assay.
The target in the next test is Cholinesterase (Homo sapiens, UniProt P06276). Briefly: Inhibition of BuChE (unknown origin).
Test [2] has as its target T1, 5-hydroxytryptamine receptor 2C (Homo sapiens, UniProt P28335).
T1 sequence (P28335 whole entry): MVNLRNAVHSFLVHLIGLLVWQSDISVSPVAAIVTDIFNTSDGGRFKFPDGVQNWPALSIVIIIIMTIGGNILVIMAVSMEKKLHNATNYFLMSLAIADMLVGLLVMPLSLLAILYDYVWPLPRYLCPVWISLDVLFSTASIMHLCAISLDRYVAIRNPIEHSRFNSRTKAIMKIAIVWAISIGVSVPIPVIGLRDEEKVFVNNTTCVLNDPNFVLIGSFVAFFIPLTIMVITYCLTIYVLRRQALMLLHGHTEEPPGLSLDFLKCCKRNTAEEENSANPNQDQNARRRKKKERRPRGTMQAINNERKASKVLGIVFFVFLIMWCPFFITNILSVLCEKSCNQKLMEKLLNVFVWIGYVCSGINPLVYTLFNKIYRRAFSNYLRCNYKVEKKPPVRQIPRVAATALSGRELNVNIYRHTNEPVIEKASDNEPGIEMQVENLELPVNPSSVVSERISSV
Briefly: Antagonist activity at serotonin 5HT2C receptor (unknown origin) by PDSP assay.

The target in test [3] is 5-hydroxytryptamine receptor 2B (Homo sapiens, UniProt P41595). Briefly: Antagonist activity at serotonin 5HT2B receptor (unknown origin) by PDSP assay.
Sequence of 5-hydroxytryptamine receptor 2B (P41595 whole entry): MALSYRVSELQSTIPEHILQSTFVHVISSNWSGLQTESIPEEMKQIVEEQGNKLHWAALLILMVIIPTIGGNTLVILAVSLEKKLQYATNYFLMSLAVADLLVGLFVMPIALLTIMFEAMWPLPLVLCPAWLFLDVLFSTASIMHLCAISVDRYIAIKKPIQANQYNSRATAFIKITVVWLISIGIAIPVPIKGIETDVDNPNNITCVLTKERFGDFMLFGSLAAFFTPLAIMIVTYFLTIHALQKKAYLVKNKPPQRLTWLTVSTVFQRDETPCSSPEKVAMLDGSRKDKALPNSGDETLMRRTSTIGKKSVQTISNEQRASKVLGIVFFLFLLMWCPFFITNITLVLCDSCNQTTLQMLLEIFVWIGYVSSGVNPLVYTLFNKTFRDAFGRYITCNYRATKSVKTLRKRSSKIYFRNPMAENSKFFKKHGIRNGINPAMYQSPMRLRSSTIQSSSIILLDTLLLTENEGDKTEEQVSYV
The target in a further test is D(3) dopamine receptor (Homo sapiens, UniProt P35462). Briefly: Antagonist activity at dopamine D3 receptor (unknown origin) by PDSP assay.
Sequence of D(3) dopamine receptor (P35462 whole entry): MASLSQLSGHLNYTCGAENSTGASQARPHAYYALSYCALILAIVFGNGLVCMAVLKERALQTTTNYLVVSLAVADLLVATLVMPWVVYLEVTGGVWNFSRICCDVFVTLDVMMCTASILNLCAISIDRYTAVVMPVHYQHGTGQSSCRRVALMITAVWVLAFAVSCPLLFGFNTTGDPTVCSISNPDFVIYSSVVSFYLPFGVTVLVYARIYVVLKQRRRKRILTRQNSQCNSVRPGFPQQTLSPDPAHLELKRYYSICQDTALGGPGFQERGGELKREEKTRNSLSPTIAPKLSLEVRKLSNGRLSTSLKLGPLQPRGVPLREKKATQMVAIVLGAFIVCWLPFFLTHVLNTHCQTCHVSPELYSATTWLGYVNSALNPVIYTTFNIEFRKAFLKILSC
The target in test [4] is 5-hydroxytryptamine receptor 6 (Homo sapiens, UniProt P50406). Briefly: Antagonist activity at serotonin 5HT6 receptor (unknown origin) by PDSP assay.
Test [5] addresses 5-hydroxytryptamine receptor 2A (Homo sapiens, UniProt P28223). Kind of test: Antagonist activity at serotonin 5HT2A receptor (unknown origin) by PDSP assay.
Test [6] concerns the target T2, 5-hydroxytryptamine receptor 1A (Homo sapiens, UniProt P08908).
T2 sequence (P08908 whole entry): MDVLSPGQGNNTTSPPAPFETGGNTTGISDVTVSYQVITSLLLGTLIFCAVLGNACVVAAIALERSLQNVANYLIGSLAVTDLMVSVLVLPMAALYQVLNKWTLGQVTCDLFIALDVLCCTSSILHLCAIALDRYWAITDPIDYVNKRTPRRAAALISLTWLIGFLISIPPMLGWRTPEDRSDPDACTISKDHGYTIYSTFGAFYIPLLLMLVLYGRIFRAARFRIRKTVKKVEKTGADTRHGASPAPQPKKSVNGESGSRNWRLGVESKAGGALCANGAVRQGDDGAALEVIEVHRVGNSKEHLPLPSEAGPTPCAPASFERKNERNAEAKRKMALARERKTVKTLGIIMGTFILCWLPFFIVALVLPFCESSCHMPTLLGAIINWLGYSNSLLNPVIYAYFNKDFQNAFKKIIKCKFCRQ
Briefly: Antagonist activity at serotonin 5HT1A receptor (unknown origin) by PDSP assay.

In test [7] the target is Beta-3 adrenergic receptor (Homo sapiens, UniProt P13945). Kind of test: Antagonist activity at adrenergic beta3 receptor (unknown origin) by PDSP assay.
Sequence of Beta-3 adrenergic receptor (P13945 whole entry): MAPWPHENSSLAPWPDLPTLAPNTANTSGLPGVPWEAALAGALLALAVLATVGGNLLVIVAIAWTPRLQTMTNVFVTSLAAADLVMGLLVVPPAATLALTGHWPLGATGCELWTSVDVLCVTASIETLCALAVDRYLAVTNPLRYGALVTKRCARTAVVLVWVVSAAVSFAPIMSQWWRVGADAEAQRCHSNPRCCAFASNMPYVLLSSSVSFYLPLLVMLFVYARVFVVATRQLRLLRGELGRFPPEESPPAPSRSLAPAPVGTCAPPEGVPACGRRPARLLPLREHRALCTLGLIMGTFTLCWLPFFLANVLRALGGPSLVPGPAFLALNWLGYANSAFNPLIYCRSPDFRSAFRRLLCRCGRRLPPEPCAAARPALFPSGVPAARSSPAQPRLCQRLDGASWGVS
Test [8] has as its target 5-hydroxytryptamine receptor 5A (Homo sapiens, UniProt P47898). Kind of test: Antagonist activity at serotonin 5HT5A receptor (unknown origin) by PDSP assay.
In test [9] the target is Muscarinic acetylcholine receptor M5 (Homo sapiens, UniProt P08912). Briefly: Antagonist activity at muscarinic M5 receptor (unknown origin) by PDSP assay.
The target in test [10] is Muscarinic acetylcholine receptor M3 (Homo sapiens, UniProt P20309). Kind of test: Antagonist activity at muscarinic M3 receptor (unknown origin) by PDSP assay.
Test [11] concerns the target Alpha-2C adrenergic receptor (Homo sapiens, UniProt P18825). Briefly: Antagonist activity at adrenergic alpha2C receptor (unknown origin) by PDSP assay.
The target in the next test is Histamine H2 receptor (Homo sapiens, UniProt P25021). Kind of test: Antagonist activity at histamine H2 receptor (unknown origin) by PDSP assay.
Sequence of Histamine H2 receptor (P25021 whole entry): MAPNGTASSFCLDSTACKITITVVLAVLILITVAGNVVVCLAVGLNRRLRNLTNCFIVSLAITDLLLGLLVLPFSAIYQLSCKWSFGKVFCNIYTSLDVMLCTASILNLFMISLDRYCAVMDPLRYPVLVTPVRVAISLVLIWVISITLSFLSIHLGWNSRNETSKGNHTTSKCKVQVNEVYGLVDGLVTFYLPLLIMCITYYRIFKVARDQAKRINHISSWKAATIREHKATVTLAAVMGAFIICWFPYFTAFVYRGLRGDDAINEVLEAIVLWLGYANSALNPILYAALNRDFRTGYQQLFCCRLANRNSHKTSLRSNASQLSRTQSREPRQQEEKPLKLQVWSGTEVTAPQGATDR
The target of test [12] is Muscarinic acetylcholine receptor M2 (Homo sapiens, UniProt P08172). Kind of test: Antagonist activity at muscarinic M2 receptor (unknown origin) by PDSP assay.
Test [13] has as its target 5-hydroxytryptamine receptor 3A (Homo sapiens, UniProt P46098). Briefly: Antagonist activity at serotonin 5HT3 receptor (unknown origin) by PDSP assay.
Another test has as its target Histamine H1 receptor (Homo sapiens, UniProt P35367). Kind of test: Antagonist activity at histamine H1 receptor (unknown origin) by PDSP assay.
Test [14] addresses Alpha-2A adrenergic receptor (Homo sapiens, UniProt P08913). Kind of test: Antagonist activity at adrenergic alpha2A receptor (unknown origin) by PDSP assay.
The target in test [15] is Muscarinic acetylcholine receptor M4 (Homo sapiens, UniProt P08173). Kind of test: Antagonist activity at muscarinic M4 receptor (unknown origin) by PDSP assay.
Sequence of Muscarinic acetylcholine receptor M4 (P08173 whole entry): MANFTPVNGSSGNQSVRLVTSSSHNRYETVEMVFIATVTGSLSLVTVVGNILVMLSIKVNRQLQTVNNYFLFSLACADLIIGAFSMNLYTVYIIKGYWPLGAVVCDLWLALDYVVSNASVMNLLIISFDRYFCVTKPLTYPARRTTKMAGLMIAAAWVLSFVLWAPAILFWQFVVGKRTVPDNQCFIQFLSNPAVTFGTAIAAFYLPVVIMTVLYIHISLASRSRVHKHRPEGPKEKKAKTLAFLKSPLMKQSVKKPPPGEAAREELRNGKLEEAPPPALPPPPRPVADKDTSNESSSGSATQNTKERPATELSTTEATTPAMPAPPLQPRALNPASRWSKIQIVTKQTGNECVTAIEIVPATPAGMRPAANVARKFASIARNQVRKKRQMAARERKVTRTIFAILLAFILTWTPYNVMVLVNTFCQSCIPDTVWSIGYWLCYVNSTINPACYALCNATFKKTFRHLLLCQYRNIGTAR
Test [16] has as its target Muscarinic acetylcholine receptor M1 (Homo sapiens, UniProt P11229). Kind of test: Antagonist activity at muscarinic M1 receptor (unknown origin) by PDSP assay.
Test [17] has as its target 5-hydroxytryptamine receptor 7 (Homo sapiens, UniProt P34969). Briefly: Antagonist activity at serotonin 5HT7 receptor (unknown origin) by PDSP assay.
Test [18] addresses 5-hydroxytryptamine receptor 1B (Homo sapiens, UniProt P28222). Kind of test: Antagonist activity at serotonin 5HT1B receptor (unknown origin) by PDSP assay.
A further test has as its target D(1A) dopamine receptor (Homo sapiens, UniProt P21728). Kind of test: Antagonist activity at dopamine D1 receptor (unknown origin) by PDSP assay.
The target in test [19] is Alpha-2B adrenergic receptor (Homo sapiens, UniProt P18089). Kind of test: Antagonist activity at adrenergic alpha2B receptor (unknown origin) by PDSP assay.
A further test has as its target Histamine H3 receptor (Homo sapiens, UniProt Q9Y5N1). Kind of test: Antagonist activity at histamine H3 receptor (unknown origin) by PDSP assay.
Test [20] has as its target Alpha-1D adrenergic receptor (Homo sapiens, UniProt P25100). Kind of test: Antagonist activity at adrenergic alpha 1D receptor (unknown origin) by PDSP assay.
Test [21] deals with Sodium-dependent serotonin transporter (Homo sapiens, UniProt P31645). Briefly: Antagonist activity at serotonin transporter (unknown origin) by PDSP assay.
The target of test [22] is 5-hydroxytryptamine receptor 1D (Homo sapiens, UniProt P28221). Kind of test: Antagonist activity at serotonin 5HT1D receptor (unknown origin) by PDSP assay.
In test [23] the target is Alpha-1A adrenergic receptor (Homo sapiens, UniProt P35348). Briefly: Antagonist activity at adrenergic alpha1A receptor (unknown origin) by PDSP assay.

Sequence of Sodium-dependent dopamine transporter (Q01959 whole entry): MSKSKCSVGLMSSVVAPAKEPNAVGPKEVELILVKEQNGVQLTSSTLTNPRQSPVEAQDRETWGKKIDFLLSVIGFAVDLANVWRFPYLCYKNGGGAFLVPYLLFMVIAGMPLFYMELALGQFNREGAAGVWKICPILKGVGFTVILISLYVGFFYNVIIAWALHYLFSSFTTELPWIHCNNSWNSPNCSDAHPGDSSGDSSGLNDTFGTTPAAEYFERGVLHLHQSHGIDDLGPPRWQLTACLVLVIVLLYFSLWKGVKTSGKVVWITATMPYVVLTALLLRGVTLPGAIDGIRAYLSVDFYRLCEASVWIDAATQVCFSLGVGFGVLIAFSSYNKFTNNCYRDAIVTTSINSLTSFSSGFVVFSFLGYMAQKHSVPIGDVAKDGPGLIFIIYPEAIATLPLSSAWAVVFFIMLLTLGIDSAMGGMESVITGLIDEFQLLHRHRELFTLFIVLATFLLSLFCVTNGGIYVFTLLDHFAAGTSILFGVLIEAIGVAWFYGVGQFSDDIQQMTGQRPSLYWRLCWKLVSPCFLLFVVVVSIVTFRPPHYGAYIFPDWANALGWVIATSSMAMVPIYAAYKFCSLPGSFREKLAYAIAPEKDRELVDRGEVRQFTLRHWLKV
Sequence of Cholinesterase (P06276 whole entry): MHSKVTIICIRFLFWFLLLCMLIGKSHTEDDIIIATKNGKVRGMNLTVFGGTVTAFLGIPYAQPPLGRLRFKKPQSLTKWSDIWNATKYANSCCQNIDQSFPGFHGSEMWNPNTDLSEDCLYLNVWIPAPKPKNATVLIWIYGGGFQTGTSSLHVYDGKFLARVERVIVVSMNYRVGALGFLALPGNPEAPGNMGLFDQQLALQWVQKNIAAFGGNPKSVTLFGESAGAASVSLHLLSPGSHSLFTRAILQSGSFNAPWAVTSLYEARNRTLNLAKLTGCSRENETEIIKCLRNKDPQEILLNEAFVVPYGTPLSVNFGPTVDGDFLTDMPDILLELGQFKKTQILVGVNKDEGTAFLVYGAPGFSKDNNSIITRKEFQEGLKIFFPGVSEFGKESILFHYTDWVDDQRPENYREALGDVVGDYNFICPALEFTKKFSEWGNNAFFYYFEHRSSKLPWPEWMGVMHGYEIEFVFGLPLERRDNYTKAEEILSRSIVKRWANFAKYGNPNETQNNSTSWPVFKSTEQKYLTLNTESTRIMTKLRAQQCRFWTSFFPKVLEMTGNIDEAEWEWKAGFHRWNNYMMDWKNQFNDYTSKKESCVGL
Sequence of 5-hydroxytryptamine receptor 2A (P28223 whole entry): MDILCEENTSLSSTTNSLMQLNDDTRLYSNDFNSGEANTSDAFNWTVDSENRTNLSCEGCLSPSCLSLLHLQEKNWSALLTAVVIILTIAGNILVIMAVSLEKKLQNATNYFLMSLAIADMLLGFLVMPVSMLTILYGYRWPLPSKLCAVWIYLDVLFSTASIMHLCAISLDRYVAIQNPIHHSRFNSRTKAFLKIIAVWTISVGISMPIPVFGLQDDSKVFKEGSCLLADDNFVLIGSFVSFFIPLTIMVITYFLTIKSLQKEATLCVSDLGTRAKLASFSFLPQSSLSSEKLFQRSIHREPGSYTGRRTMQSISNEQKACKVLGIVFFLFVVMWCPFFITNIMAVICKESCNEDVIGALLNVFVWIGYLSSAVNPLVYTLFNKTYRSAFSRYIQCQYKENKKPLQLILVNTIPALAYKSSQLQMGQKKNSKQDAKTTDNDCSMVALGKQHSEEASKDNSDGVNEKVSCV
Sequence of 5-hydroxytryptamine receptor 3A (P46098 whole entry): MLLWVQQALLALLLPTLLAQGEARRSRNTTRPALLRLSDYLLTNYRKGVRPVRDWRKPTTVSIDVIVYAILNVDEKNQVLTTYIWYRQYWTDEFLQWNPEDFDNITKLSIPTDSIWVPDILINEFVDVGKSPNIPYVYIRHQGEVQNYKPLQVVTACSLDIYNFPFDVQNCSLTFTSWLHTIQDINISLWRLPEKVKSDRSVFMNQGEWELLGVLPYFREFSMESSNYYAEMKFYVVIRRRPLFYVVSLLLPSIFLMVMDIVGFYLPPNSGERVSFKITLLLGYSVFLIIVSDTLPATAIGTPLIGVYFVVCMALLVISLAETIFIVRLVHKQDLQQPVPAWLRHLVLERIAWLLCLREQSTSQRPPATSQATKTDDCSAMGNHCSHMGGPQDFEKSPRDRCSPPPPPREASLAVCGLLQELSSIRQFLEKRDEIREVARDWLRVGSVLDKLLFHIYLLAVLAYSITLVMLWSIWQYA
Sequence of Alpha-2C adrenergic receptor (P18825 whole entry): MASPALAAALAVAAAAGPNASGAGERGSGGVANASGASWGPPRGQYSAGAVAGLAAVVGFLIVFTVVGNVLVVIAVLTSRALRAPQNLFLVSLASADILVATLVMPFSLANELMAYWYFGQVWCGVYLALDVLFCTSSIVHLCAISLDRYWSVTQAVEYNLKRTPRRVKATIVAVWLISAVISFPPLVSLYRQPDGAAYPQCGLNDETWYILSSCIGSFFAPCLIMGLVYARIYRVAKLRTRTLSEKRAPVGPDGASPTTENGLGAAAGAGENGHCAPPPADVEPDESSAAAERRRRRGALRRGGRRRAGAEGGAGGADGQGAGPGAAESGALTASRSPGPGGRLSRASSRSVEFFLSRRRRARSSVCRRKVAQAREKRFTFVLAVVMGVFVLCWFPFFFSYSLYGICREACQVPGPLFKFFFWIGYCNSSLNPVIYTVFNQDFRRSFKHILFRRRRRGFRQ

`O=C(c1cccc(Br)c1)N1c2ccccc2Sc2ccccc21` showed a Ki in test [1] of 92 nM.

Turning to `O=C(Oc1cccc2ccccc12)N1c2ccccc2Sc2ccccc21`, the figures for the Ki (on Cholinesterase; in test [1]) were 40 nM and 3900 nM, respectively.

In the case of `CC(C(=O)N1c2ccccc2Sc2ccccc21)c1ccccc1` (stereo not drawn), the Ki in test [2] was 390 nM; in test [3] it was 170 nM; on D(3) dopamine receptor it was 8900 nM; in test [4], 1200 nM; in test [5], 180 nM; in test [6], 1100 nM. In addition, the Ki in test [7] turned out to be 2500 nM.

For `O=C(OCCN1CCCC1)N1c2ccccc2Sc2ccccc21`, the Ki in test [8] was 2200 nM; in [9] it was 6 nM; in test [10], 66 nM; in test [2], 940 nM; in [11], 830 nM; on Histamine H2 receptor, 540 nM. Moreover, the Ki was found to be 100 nM in test [12]; 1900 nM in test [13]; 29 nM on Histamine H1 receptor; 95 nM in test [14]; 54 nM in test [15]; 2 nM in test [16]. In addition, the Ki in test [3] worked out at 100 nM; at D(3) dopamine receptor, 1000 nM; in test [5], 2400 nM; in test [6] it was 1700 nM; in [1] it was 970 nM; in test [17] it was 330 nM. Moreover, the Ki came out at 2200 nM in test [18], 5900 nM on D(1A) dopamine receptor, 800 nM in test [19] and 6000 nM on Histamine H3 receptor.

For `O=C(CCCc1ccccc1)N1c2ccccc2Sc2ccccc21`, the Ki in test [20] amounted to 4100 nM; at Histamine H2 receptor it was 7500 nM; in [21], 3800 nM; in test [5], 1600 nM; in [1] it was 3300 nM; in [7], 1700 nM.

For `CCN(CC)CCCOC(=O)N1c2ccccc2Sc2ccccc21`, the Ki in [9] worked out at 120 nM; in test [10] it was 170 nM; in [2] it was 3100 nM; in [11], 600 nM; on Histamine H2 receptor, 1400 nM; in test [12], 220 nM. In addition, the Ki in test [13] is 3900 nM; on Histamine H1 receptor, 430 nM; in test [15], 21 nM; in [16], 64 nM; in [3], 630 nM; at D(3) dopamine receptor, 1000 nM. The Ki in [22] was 2700 nM; in test [5], 3600 nM; in test [6], 450 nM; in [1], 6000 nM; on Histamine H3 receptor, 960 nM.

Consider `O=C(C1CCCCCC1)N1c2ccccc2Sc2ccccc21`, for which the Ki at Cholinesterase was 860 nM; in test [5], 1700 nM.

Regarding `O=C(Cc1ccc2ccccc2c1)N1c2ccccc2Sc2ccccc21`, the Ki stood at 2200 nM in test [2]; 30 nM on Cholinesterase; 330 nM in test [23]; 2000 nM in test [3]; 9900 nM in test [4]; 6600 nM in [1].
